Measured values published in ChEMBL document CHEMBL1255239, “Increases in SLT2 expression and chitin content are associated with incomplete killing of Candida glabrata by caspofungin” (2008).
Activity calls are given as the source filed them. The calls are words filed in the database; no cut-off is given here.

Legend:
[1] = test system: Nakaseomyces glabratus; assay: Antifungal activity against Candida glabrata 200989 assessed as log reduction in bacterial count at 0.125 to 16 ug/ml by time-kill analysis; assay type: functional
[2] = test system: Nakaseomyces glabratus; assay: Antifungal activity against Candida glabrata 200989 at 0 to 32 ug/ml by XTT […] assay; assay type: functional, organism-based
[3] = test system: Nakaseomyces glabratus; assay: Antifungal activity against slt2 deficient Candida glabrata 200989 assessed as log reduction in bacterial count at 0.125 ug/ml by time-kill analysis; assay type: functional
[4] = test system: Nakaseomyces glabratus; assay: Increase in slt2 gene expression in Candida glabrata 200989 at 0.125 to 16 ug/ml after 12 hrs by RT-PCR analysis; assay type: functional, organism-based
[5] = test system: Nakaseomyces glabratus; assay: Increase in CHS3 gene expression in slt2 deficient Candida glabrata 200989 at 0.125 to 16 ug/ml after 180 mins by RT-PCR analysis; assay type: functional, organism-based
[6] = test system: Nakaseomyces glabratus; assay: Increase in slt2 gene expression in Candida glabrata 200989 at 0.125 to 16 ug/ml after 180 mins by RT-PCR analysis relative to control; assay type: functional
[7] = test system: Nakaseomyces glabratus; assay: Increase in chitin content in slt2 deficient Candida glabrata 200989 at 0.125 to 16 ug/ml after 12 hrs; assay type: functional, organism-based
[8] = test system: Nakaseomyces glabratus; assay: Increase in chitin content in Candida glabrata 200989 at 0.125 to 16 ug/ml after 12 hrs relative to control; assay type: functional
[9] = test system: Nakaseomyces glabratus; assay: Antifungal activity against slt2 deficient Candida glabrata 200989 assessed as log reduction in bacterial count at 16 ug/ml by time-kill analysis; assay type: functional
[10] = test system: Nakaseomyces glabratus; assay: Antifungal activity against Candida glabrata 200989 at 0.125 to 16 ug/ml by time-kill analysis; assay type: functional, organism-based
[11] = test system: Nakaseomyces glabratus; assay: Increase in CHS3 gene expression in Candida glabrata 200989 at 0.125 to 16 ug/ml after 180 mins by RT-PCR analysis relative to control; assay type: functional
[12] = test system: Nakaseomyces glabratus; assay: Antifungal activity against slt2 deficient Candida glabrata 200989 assessed as log reduction in bacterial count at 1 ug/ml by time-kill analysis; assay type: functional
[13] = test system: Nakaseomyces glabratus; assay: Increase in slt2 gene expression in Candida glabrata 200989 at 0.125 to 16 ug/ml after 10 mins by RT-PCR analysis relative to control; assay type: functional

CC[C@H](C)C[C@H](C)CCCCCCCCC(=O)N[C@H]1C[C@@H](O)[C@@H](NCCN)NC(=O)[C@@H]2[C@@H](O)CCN2C(=O)[C@H]([C@H](O)CCN)NC(=O)[C@H]([C@H](O)[C@@H](O)c2ccc(O)cc2)NC(=O)[C@@H]2C[C@@H](O)CN2C(=O)[C@H]([C@@H](C)O)NC1=O [CASPOFUNGIN]
log10cfu [1]: 1.6 /ml
Activity [2]: inactive
log10cfu [3]: 2.6 /ml
Activity [4]: inactive
Activity [5]: inactive
fold change (FC) [6]: >=3.8
Activity [7]: inactive
fold change (FC) [8]: >3.5
log10cfu [9]: 4.2 /ml
Activity [10]: inactive
fold change (FC) [11]: >2
log10cfu [12]: 4.2 /ml
fold change (FC) [13]: >2
